Results published in PubChem BioAssay (NCI).
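Protocol summary: plate cells (96-well), add compound at 5 concentrations, incubate 48 h, interpolate endpoints linearly. TGI denotes the concentration required for complete inhibition of growth.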

How the values were obtained:
Experiment in all cases: inhibition of tumour cell growth, NCI panel, 48 h
A498 renal = tested on: A498 renal
COLO 205 colon = tested on: COLO 205 colon
DU-145 prostate = tested on: DU-145 prostate
HCC-2998 colon = tested on: HCC-2998 colon
HOP-62 NSCLC = tested on: HOP-62 NSCLC
NCI-H460 lung = tested on: NCI-H460 lung
OVCAR-5 ovarian = tested on: OVCAR-5 ovarian
SF-295 CNS = tested on: SF-295 CNS
SNB-19 CNS = tested on: SNB-19 CNS
SNB-75 CNS = tested on: SNB-75 CNS
TK-10 renal = tested on: TK-10 renal
UACC-62 melanoma = tested on: UACC-62 melanoma

Row | SMILES | TGI (A498 renal) [µM] | TGI (COLO 205 colon) [µM] | TGI (DU-145 prostate) [µM] | TGI (HCC-2998 colon) [µM] | TGI (HOP-62 NSCLC) [µM] | TGI (NCI-H460 lung) [µM] | TGI (OVCAR-5 ovarian) [µM] | TGI (SF-295 CNS) [µM] | TGI (SNB-19 CNS) [µM] | TGI (SNB-75 CNS) [µM] | TGI (TK-10 renal) [µM] | TGI (UACC-62 melanoma) [µM]
1 | COCCc1c(C)c(C#N)c2n(C)c3ccccc3n2c1=O | > 10 | > 10 | > 10 | > 10 | > 10 | > 10 | > 10 | > 10 | > 10 | > 10 | > 10 | > 10
2 | CCOC(=O)c1ccc(N=C2SC(=S)N(c3ccc(F)cc3)C2=Nc2ccc(C(=O)OCC)cc2)cc1 | > 100 | 40.3 | > 100 | > 80.5 | > 89 | > 100 | 38.7 | > 100 | > 100 | 52.4 | 36.6 | 21.5
3 | CCN(CC)CCN1c2ccccc2Sc2ccc3ccccc3c21 | 24.7 | 15.9 | 12.3 | 6.86 | 29 | 6.42 | 23 | 26.4 | 29.6 | 19.9 | 23.9 | 22
4 | CC1=C(C)C(=O)OC(C(C)(O)C2(O)CCC3(O)C4CC(Cl)C5(O)C(O)C=CC(=O)C5(C)C4CCC32C)C1 (centres undefined) | > 100 | 42.8 | > 100 | > 100 | > 100 | > 100 | > 100 | > 100 | > 100 | > 100 | > 100 | > 100
5 | CCN(CC)CC(O)c1ccc2ccc3ccccc3c2c1 (centres undefined) | 26.3 | 29.9 | 33 | 23 | 29.6 | 32.7 | 27.5 | 28.9 | 29.5 | 33.5 | 29.9 | 29.1
6 | O=C(CSc1nc2ccc(I)cc2c(=O)n1Cc1ccccc1)N/N=C/c1ccccc1 | 43.7 | > 100 | > 100 | > 100 | 20.9 | > 100 | > 100 | 30.9 | 49.1 | 28.6 | 36.1 | > 100
7 | CN1CN(c2ccccc2)C2(CCNCC2)C1=O | > 100 | > 100 | > 100 | > 100 | > 100 | > 100 | > 100 | > 100 | > 100 | > 100 | > 100 | > 100
